# Data from ChEMBL document CHEMBL1154585, “Lorneamides A and B: two new aromatic amides from a southern Australian marine actinomycete” (2000).
# System: Bacillus subtilis
# Test: Antibacterial activity against Bacillus subtilis
# Assay type: functional
smiles,measurement,value
CCCC(O)/C=C/c1cc(C)ccc1/C=C/CC(N)=O (stereo unspecified) [LORNEAMIDE A],LD99,50 µg/mL
